The subject of test [1] is SK-BR-3 cells (HER2 overexpressing cell line). Description: SK-BR-3 cell proliferation inhibitory activity (CellTiter-Glo, 120 hours). The class given is cell-based. An outline of the steps:
(§1)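 GI50 derived from % growth versus control from CellTiter-Glo luminescence, each test run three times. SK-BR-3 and BT-474 are seeded 48 h ahead at 5000/well and dosed at 0.2 nM–10 μM. N-87 (5000/well) gets […]–5 μM and HaCaT (3000/well) gets 0.8 nM–45 μM, both seeded 24 h ahead.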

Test [2] relates to HaCaT cells (EGFR expressing cell line). Description: HaCaT cell proliferation inhibitory activity (CellTiter-Glo, 72 hours). The class given is cell-based. An outline of the steps:
as §1

The structures appear in SMILES notation. Read-outs that look alike come from different tables or passages of the source.

By GI50 is commonly meant the concentration giving 50% growth inhibition. On to `C=CC(=O)N1CCC(Oc2cc3c(Nc4cc(-c5ccco5)ncc4OC)ncnc3cc2OC)CC1` [Example 105, 1-(4-((4-((2-(furan-2-yl)-5-methoxypyridin-4-yl)amino)-7-methoxy-quinazolin-6-yl)oxy)piperidin-1-yl)prop-2-en-1-one], for which the 50% growth inhibitory concentration (GI50) in test [1] (Homo sapiens) and in test [2] (Homo sapiens) was no more than 150 nM throughout.

Regarding `C=CC(=O)N1CCC(Oc2cc3c(Nc4cc(-c5ccco5)ccc4OC)ncnc3cc2OC)C(F)(F)C1` (centres unmarked) [Example 111, 1-(3,3-difluoro-4-((4-((5-(furan-2-yl)-2-methoxyphenyl)amino)-7-methoxy-quinazolin-6-yl)oxy)piperidin-1-yl)prop-2-en-1-one], the GI50 in test [1] (Homo sapiens) and in test [2] (Homo sapiens) was no more than 150 nM throughout.

As for `C=CC(=O)N1CCC(Oc2cc3c(Nc4cc(-c5ccco5)ccc4OC)ncnc3cc2OC)CC1C(F)(F)F` (centres unmarked) [Example 114, 1-(4-((4-((5-(furan-2-yl)-2-methoxyphenyl)amino)-7-methoxy-quinazolin-6-yl)oxy)-2-(trifluoro-methyl)piperidin-1-yl)prop-2-en-1-one], the GI50 in test [1] was 150 to 1000 nM; in test [2], no more than 150 nM.

Regarding `C=CC(=O)N1CC2CC1CC2Oc1cc2c(Nc3cc(-c4ccco4)ccc3OC)ncnc2cc1OC` (centres unmarked) [Example 115, 1-(5-((4-((5-(furan-2-yl)-2-methoxyphenyl)amino)-7-methoxy-quinazolin-6-yl)oxy)-2-azabicyclo[2. 2.1]heptan-2-yl)prop-2-en-1-one], the GI50 in test [1] (Homo sapiens) is 150 to 1000 nM; in test [2] (Homo sapiens), no more than 150 nM.

Regarding `C=CC(=O)N1CCC(Oc2cc3c(Nc4cc(-c5ccco5)ccc4OC(F)(F)F)ncnc3cc2OC)CC1` [Example 116, 1-(4-((4-((5-(furan-2-yl)-2-(trifluoro-methoxy)phenyl)amino)-7-methoxy-quinazolin-6-yl)oxy)piperidin-1-yl)prop-2-en-1-one], the 50% growth inhibitory concentration (GI50) in test [1] (Homo sapiens) is 150 to 1000 nM; in test [2] (Homo sapiens), no more than 150 nM.

In the case of `C=CC(=O)N1CCC(Oc2cc3c(Nc4cc(-c5cccs5)ccc4OCC)ncnc3cc2OC)CC1` [Example 117, 1-(4-((4-((2-ethoxy-5-(thiophen-2-yl)phenyl)amino)-7-methoxy-quinazolin-6-yl)oxy)piperidin-1-yl)prop-2-en-1-one], the concentration for 50% growth inhibition (GI50) in test [1] (Homo sapiens) and in test [2] (Homo sapiens) was no more than 150 nM each time.

As for `C=CC(=O)N1CCC(Oc2cc3c(Nc4cc(-c5ccco5)ccc4OCC)ncnc3cc2OC)CC1` [Example 118, 1-(4-((4-((2-ethoxy-5-(furan-2-yl)phenyl)amino)-7-methoxy-quinazolin-6-yl)oxy)piperidin-1-yl)prop-2-en-1-one], the GI50 in test [1] (Homo sapiens) and in test [2] (Homo sapiens) was no more than 150 nM throughout.

Regarding `COc1ccc(-c2cccs2)cc1Nc1ncnc2cc(OC)c(OC3CCN(C(=O)/C=C/CN(C)C)CC3)cc12` [Example 119, (E)-4-(dimethylamino) 1-(4-((7-methoxy-4-((2-methoxy-5-(thiophen-2-yl)phenyl)amino)quinazolin-6-yl)oxy)piperidin-1-yl)but-2-en-1-one], the GI50 in test [1] (Homo sapiens) is 150 to 1000 nM; in test [2] (Homo sapiens), no more than 150 nM.

Consider `C=C(CN(C)C)C(=O)N1CCC(Oc2cc3c(Nc4cc(-c5ccco5)ccc4OC)ncnc3cc2OC)CC1` [Example 121, 2-((dimethylamino)methyl)-1-(4-((4-((5-(furan-2-yl)-2-methoxyphenyl)amino)-7-methoxy-quinazolin-6-yl)oxy)piperidin-1-yl)prop-2-en-1-one], for which the GI50 in test [1] (Homo sapiens) was greater than 1000 nM; in test [2] (Homo sapiens), no more than 150 nM.

In the case of `C=CC(=O)N1CCC(Oc2cc3c(Nc4cc(-c5ccco5)ccc4OC)ccnc3cc2OC)CC1` [Example 125, 1-(4-((4-((5-(furan-2-yl)-2-methoxyphenyl)amino)-7-methoxy-quinolin-6-yl)oxy)piperidin-1-yl)prop-2-en-1-one], the concentration for 50% growth inhibition (GI50) in test [1] (Homo sapiens) and in test [2] (Homo sapiens) was 150 to 1000 nM in each case.

Turning to `C=CC(=O)N1CC(Oc2cc3c(Nc4cc(-c5cccc6ncnn56)ccc4OC)ncnc3cc2OC)C1` [Example 128, 1-(3-((4-((5-([1,2,4]triazolo[1,5-a]pyridin-5-yl)-2-methoxyphenyl)amino)-7-methoxy-quinazolin-6-yl)oxy)azetidin-1-yl)prop-2-en-1-one], the GI50 in test [1] (Homo sapiens) and in test [2] (Homo sapiens) was 150 to 1000 nM in each case.

As for `C=CC(=O)N1CCC(Oc2cc3c(Nc4cc(-c5cnco5)ccc4OC)ncnc3cc2OC)CC1` [Example 130, 1-(4-((7-methoxy-4-((2-methoxy-5-(oxazol-5-yl)phenyl)amino)quinazolin-6-yl)oxy)piperidin-1-yl)prop-2-en-1-one], the GI50 in test [1] (Homo sapiens) and in test [2] (Homo sapiens) was 150 to 1000 nM throughout.

Turning to `C=CC(=O)N1CCC(Oc2cc3c(Nc4cc(-c5ccc(C)cc5F)ccc4OC)ncnc3cc2OC)CC1` [Example 131, 1-(4-((4-((2′-fluoro-4-methoxy-4′-methyl-[1,1′-biphenyl]-3-yl)amino)-7-methoxy-quinazolin-6-yl)oxy)piperidin-1-yl)prop-2-en-1-one], the concentration for 50% growth inhibition (GI50) in test [1] (Homo sapiens) and in test [2] (Homo sapiens) was 150 to 1000 nM in each case.

Regarding `C=CC(=O)N1CC[C@H](Oc2cc3c(Nc4cc(-c5ccco5)ccc4OC)ncnc3cc2OC)C1` [Example 132, (S)-1-(3-((4-((5-(furan-2-yl)-2-methoxyphenyl)amino)-7-methoxy-quinazolin-6-yl)oxy)pyrrolidin-1-yl)prop-2-en-1-one], the values for the 50% growth inhibitory concentration (GI50) in test [1] (Homo sapiens) and in test [2] (Homo sapiens) were greater than 1000 nM and 150 to 1000 nM, respectively.

Consider `C=CC(=O)N1CCC(Oc2cc3c(Nc4cc(-c5ccc(F)nc5)ccc4OC)ncnc3cc2OC)CC1` [Example 133, 1-(4-((4-((5-(6-fluoropyridin-3-yl)-2-methoxyphenyl)amino)-7-methoxy-quinazolin-6-yl)oxy)piperidin-1-yl)prop-2-en-1-one], for which the GI50 in test [1] (Homo sapiens) and in test [2] (Homo sapiens) was 150 to 1000 nM in each case.

Regarding `C=CC(=O)N1CCC(Oc2cc3c(Nc4cc(-c5cccc(C#N)c5F)ccc4OC)ncnc3cc2OC)CC1` [Example 134, 3′-((6-((1-acryloyl-piperidin-4-yl)oxy)-7-methoxy-quinazolin-4-yl)amino)-2-fluoro-4′-methoxy-[1,1′-biphenyl]-3-carbonitrile], the GI50 in test [1] (Homo sapiens) and in test [2] (Homo sapiens) was 150 to 1000 nM throughout.

`C=CC(=O)N1CCC(Oc2cc3c(Nc4cc(-c5cccc(Cl)c5F)ccc4OC)ncnc3cc2OC)CC1` [Example 135, 1-(4-((4-((3′-chloro-2′-fluoro-4-methoxy-[1,1′-biphenyl]-3-yl)amino)-7-methoxy-quinazolin-6-yl)oxy)piperidin-1-yl)prop-2-en-1-one]: the GI50 in test [1] (Homo sapiens) and in test [2] (Homo sapiens) was 150 to 1000 nM in each case.

In the case of `C=CC(=O)N1CCC(Oc2cc3c(Nc4cc(-c5ccccc5F)ccc4OC)ncnc3cc2OC)CC1` [Example 136, 1-(4-((4-((2′-fluoro-4-methoxy-[1,1′-biphenyl]-3-yl)amino)-7-methoxy-quinazolin-6-yl)oxy)piperidin-1-yl)prop-2-en-1-one], the 50% growth inhibitory concentration (GI50) in test [1] (Homo sapiens) and in test [2] (Homo sapiens) was no more than 150 nM in each case.

Consider `C=CC(=O)N1CCC(Oc2cc3c(Nc4cc(-c5cccc(F)c5F)ccc4OC)ncnc3cc2OC)CC1` [Example 137, 1-(4-((4-((2′,3′-difluoro-4-methoxy-[1,1′-biphenyl]-3-yl)amino)-7-methoxy-quinazolin-6-yl)oxy)piperidin-1-yl)prop-2-en-1-one], for which the concentration for 50% growth inhibition (GI50) in test [1] (Homo sapiens) and in test [2] (Homo sapiens) was no more than 150 nM each time.

The values are drawn from patent US20240246940A1, “HETEROARYL DERIVATIVE COMPOUND AND USE THEREOF” (VORONOI INC., priority 2021, published 2024).
